Read-outs that look alike come from different tables or passages of the source.
Test system: SARS-CoV-2-specific CD4+ T cells (OX40+CD137+) in PBMC
Format: cell-based, human
Settings: CD4+ T cell epitopes identified by AIM assay; for Magnitude by # of responding donors: sum of response per responding donor
[1] = percent of tested donors responding
[2] = total response summed over donors

In the case of NAPRITFGGPSDSTG, the “Frequency of response (%)” value (share of donors responding) is reported as 6%, the “Magnitude by # of responding donors” value is reported as 259 and the Sum of response (total response) is reported as 259.
With NRNRFLYIIKLIFLW the “Frequency of response (%)” value (share of donors responding) was 13%, the “Magnitude by # of responding donors” value was 210 and the Sum of response (total response) was 420.
For EFVFKNIDGYFKIYS, the “Frequency of response (%)” value (share of donors responding) was 18%, the “Magnitude by # of responding donors” value was 336 and the Sum of response (total response) was 672.
With APHGVVFLHVTYVPA the “Frequency of response (%)” value [1] was 7%, the “Magnitude by # of responding donors” value was 293 and the Sum of response [2] was 293.
In the case of TQHQPYVVDDPCPIH, the “Frequency of response (%)” value (share of donors responding) is reported as 36%, the “Magnitude by # of responding donors” value is reported as 338 and the Sum of response (total response) is reported as 1352.
With TQLNRALTGIAVEQD the “Frequency of response (%)” value [1] was 8%, the “Magnitude by # of responding donors” value was 260 and the Sum of response [2] was 260.
In the case of LVAAGLEAPFLYLYA, the “Frequency of response (%)” value (share of donors responding) is reported as 9%, the “Magnitude by # of responding donors” value is reported as 133 and the Sum of response (total response) is reported as 133.
In the case of IPFAMQMAYRFNGIG, the “Frequency of response (%)” value (share of donors responding) is reported as 18%, the “Magnitude by # of responding donors” value is reported as 187 and the Sum of response (total response) is reported as 373.
ASRELKVTFFPDLNG was tested, and the “Frequency of response (%)” value (share of donors responding) was 15%, the “Magnitude by # of responding donors” value was 162 and the Sum of response (total response) was 324.
FTGYRVTKNSKVQIG was tested, and the “Frequency of response (%)” value (share of donors responding) was 8%, the “Magnitude by # of responding donors” value was 116 and the Sum of response (total response) was 116.
QEPKLGSLVVRCSFY was tested, and the “Frequency of response (%)” value (share of donors responding) was 9%, the “Magnitude by # of responding donors” value was 124 and the Sum of response (total response) was 124.
For FPRGQGVPINTNSSP, the “Frequency of response (%)” value (share of donors responding) was 8%, the “Magnitude by # of responding donors” value was 397 and the Sum of response (total response) was 397.
FTVEKGIYQTSNFRV was tested, and the “Frequency of response (%)” value [1] was 9%, the “Magnitude by # of responding donors” value was 1202 and the Sum of response [2] was 1202.
With FGTTLDSKTQSLLIV the “Frequency of response (%)” value (share of donors responding) was 9%, the “Magnitude by # of responding donors” value was 174 and the Sum of response (total response) was 174.
With TPPIKDFGGFNFSQI the “Frequency of response (%)” value (share of donors responding) was 8%, the “Magnitude by # of responding donors” value was 421 and the Sum of response (total response) was 421.
With IGNYTVSCLPFTINC the “Frequency of response (%)” value (share of donors responding) was 45%, the “Magnitude by # of responding donors” value was 245 and the Sum of response (total response) was 1223.
LMDLEGKQGNFKNLR was tested, and the “Frequency of response (%)” value (share of donors responding) was 36%, the “Magnitude by # of responding donors” value was 347 and the Sum of response (total response) was 1386.
With KLLKSIAATRGATVV [SEQ ID NO 258] the “Frequency of response (%)” value [1] was 6%, the “Magnitude by # of responding donors” value was 230 and the Sum of response [2] was 230.
RLWLCWKCRSKNPLL was tested, and the “Frequency of response (%)” value (share of donors responding) was 7%, the “Magnitude by # of responding donors” value was 290 and the Sum of response (total response) was 290.
In the case of EELKKLLEQWNLVIG, the “Frequency of response (%)” value (share of donors responding) is reported as 13%, the “Magnitude by # of responding donors” value is reported as 223 and the Sum of response (total response) is reported as 446.
QFAPSASAFFGMSRI was tested, and the “Frequency of response (%)” value (share of donors responding) was 17%, the “Magnitude by # of responding donors” value was 191 and the Sum of response (total response) was 381.
For NVLFSTVFPPTSFGP, the “Frequency of response (%)” value (share of donors responding) was 7%, the “Magnitude by # of responding donors” value was 109 and the Sum of response (total response) was 109.
In the case of LVYFLQSINFVRIIM [SEQ ID NO 251], the “Frequency of response (%)” value [1] is reported as 7%, the “Magnitude by # of responding donors” value is reported as 218 and the Sum of response [2] is reported as 218.
HCANFNVLFSTVFPP was tested, and the “Frequency of response (%)” value (share of donors responding) was 7%, the “Magnitude by # of responding donors” value was 211 and the Sum of response (total response) was 211.
AVMSLKEGQINDMIL was tested, and the “Frequency of response (%)” value (share of donors responding) was 33%, the “Magnitude by # of responding donors” value was 104 and the Sum of response (total response) was 104.
With WPQIAQFAPSASAFF the “Frequency of response (%)” value (share of donors responding) was 33%, the “Magnitude by # of responding donors” value was 376 and the Sum of response (total response) was 1503.
In the case of FLGIITTVAAFHQEC [SEQ ID NO 254], the “Frequency of response (%)” value [1] is reported as 9%, the “Magnitude by # of responding donors” value is reported as 185 and the Sum of response [2] is reported as 185.
In the case of CTFEYVSQPFLMDLE, the “Frequency of response (%)” value [1] is reported as 64%, the “Magnitude by # of responding donors” value is reported as 619 and the Sum of response [2] is reported as 4332.
With STECSNLLLQYGSFC the “Frequency of response (%)” value (share of donors responding) was 8%, the “Magnitude by # of responding donors” value was 314 and the Sum of response (total response) was 314.
IATNGPLKVGGSCVL was tested, and the “Frequency of response (%)” value (share of donors responding) was 8%, the “Magnitude by # of responding donors” value was 112 and the Sum of response (total response) was 112.
With LYIIKLIFLWLLWPV the “Frequency of response (%)” value (share of donors responding) was 13%, the “Magnitude by # of responding donors” value was 199 and the Sum of response (total response) was 397.
In the case of FGDQELIRQGTDYKH, the “Frequency of response (%)” value (share of donors responding) is reported as 8%, the “Magnitude by # of responding donors” value is reported as 281 and the Sum of response (total response) is reported as 281.
With LPQGFSALEPLVDLP the “Frequency of response (%)” value (share of donors responding) was 18%, the “Magnitude by # of responding donors” value was 418 and the Sum of response (total response) was 836.
With VFAQVKQIYKTPPIK the “Frequency of response (%)” value [1] was 8%, the “Magnitude by # of responding donors” value was 268 and the Sum of response [2] was 268.
In the case of GAVILRGHLRIAGHH, the “Frequency of response (%)” value (share of donors responding) is reported as 8%, the “Magnitude by # of responding donors” value is reported as 512 and the Sum of response (total response) is reported as 512.
In the case of NLVIGFLFLTWICLL, the “Frequency of response (%)” value (share of donors responding) is reported as 7%, the “Magnitude by # of responding donors” value is reported as 261 and the Sum of response (total response) is reported as 261.
For YREAACCHLAKALND, the “Frequency of response (%)” value (share of donors responding) was 8%, the “Magnitude by # of responding donors” value was 109 and the Sum of response (total response) was 109.
With LEAPFLYLYALVYFL the “Frequency of response (%)” value (share of donors responding) was 7%, the “Magnitude by # of responding donors” value was 272 and the Sum of response (total response) was 272.
